The values below come from PubChem BioAssay AID1963854 (Molecular Pharmacology Branch, DTP, NCI, 2024).

Several values for one entry are separate records, joined by “and”; a condition that tells them apart may be missing. Equal entries are not always repeated.

As usually defined, the viability, T/C is the result in the treated group divided by that in the control group, in per cent. In general, IC50 refers to the concentration that inhibits the measured activity by half.

This experiment deals with 186277-243-T-J2-PDC complex spheroid viability. Put plainly: Anticancer human tumor 186277-243-T-J2-PDC patient-derived colon adenocarcinoma cell line growth inhibition [POLQ]. The conditions noted are these: for viability, T/C: stronger effect = lower value. The method, then:
Multicellular complex tumor spheroid response to Polymerase (POL) inhibitors (novobiocin, ART-558, RP6685) in combination with a variety of drugs and investigational agents in selected tumor cell lines
The POL inhibitors (novobiocin, ART-558, and RP6685) were evaluated both individually and in combination with standard of care and investigational anticancer small molecules within a complex spheroid model of solid tumors. . Complex spheroids include a stromal component modeled by human endothelial cells (HUVEC) and fibroblasts modeled by human mesenchymal stem cells (MSCs). The concentration ranges selected for each drug and investigational agent were based upon clinically achievable concentrations if the clinical Cmax of the agent was known.
Compounds. The drugs and investigational agents: novobiocin (NSC847541), ART-558 (NSC835418), RP-6685 (NSC848927), peposertib (NSC802822), ceralasertib (NSC780249), elimusertib (NSC800525), camonsertib (NSC841442), AZD-1390 (NSC803789), olaparib (NSC753686), talazoparib (NSC767125), rucaparib (NSC756644), sotorasib (NSC818433), MRTX-1133 (NSC836407), SN-38 (NSC673596), topotecan (NSC609699), epotoside (NSC141540), doxorubicin (NSC123127), gemcitabine (NSC613327), 5-fluorouracil (NSC19893), paclitaxel (NSC125973), vemurafenib (NSC761431), MSA-2 (NSC828583), SN-011 (NSC837082), adavosertib (NSC754352), prexasertib (NSC758257), carboplatin (NSC241240) and oxaliplatin (NSC266046), were obtained from the National Cancer Institute (NCI) Developmental Therapeutics Program Chemical Repository (21). The FDA-approved anticancer drug set is available from the Developmental Therapeutics Program at https://dtp.cancer.gov/organization/dscb/obtaining/. […] The stock solutions were prepared in dimethyl sulfoxide (DMSO, Sigma-Aldrich, St. Louis, MO, cat. D2650), except for the platinum compounds which were prepared in saline (Quality Biological, Gaithersburg, MD, cat. 114-055-101), at 800-fold the tested concentration and stored at -70 degrees C prior to their use. All drugs and investigational agents were tested over a range starting from a high concentration at or near the clinical Cmax and decreasing in half-log increments. If the clinical Cmax for an agent had not been determined, the highest concentration tested was 10 microM, except for SN-38, which was tested at a high concentration of 1 microM.
Cell Culture. All cells were maintained in an incubator at 37 degrees C and 5% CO2 with 95% humidity. The PDC lines were cultured according to standard operating procedures established by the NCI PDMR (https://pdmr.cancer.gov). Table 3 of the manuscript, lists the cell lines along with the number of the three cell types plated to form the mct-spheroids and media for tumor cell growth. After thawing, all PDC lines, except 997537-175-T-J1-PDC and 415267-285-R-J2-PDC, were cultured in Matrigel-coated flasks prepared with a working solution of 1X Ham's F-12 nutrient mix, without supplementation (Thermo Fisher Scientific, cat. 11765054), 100 U/mL penicillin-streptomycin (Thermo Fisher Scientific, cat. 15140122), and 2.5% Matrigel (Corning Inc., Corning, NY, cat. 354248) for the first three passages. The two PDC lines 997537-175-T-J1-PDC and 415267-285-R-J2-PDC were cultured on uncoated flasks. The 857933-349-R-J2-PDC line was cultured in 6C/Colon 1B media containing advanced DMEM/F-12 (Thermo Fisher Scientific, cat. 12634028), 10 mM HEPES (Thermo Fisher Scientific, cat. 15630080), 1X GlutaMAX supplement (Thermo Fisher Scientific, cat. 35050061), 0.1 mg/mL primocin (InvivoGen, San Diego, CA, cat. ant-pm-2), 10% defined fetal bovine serum, heat inactivated (HyClone Laboratories Inc., Logan, UT, cat. SH30070.03HI), 50% L-WRN conditioned media (ATCC, cat. CRL-3276), 1.25 mM N-Acetyl-L-cysteine (Sigma-Aldrich, cat. A9165), 10 mM nicotinamide (Sigma-Aldrich, cat. N0636), 1X B-27 supplement (Thermo Fisher Scientific, cat. 17504044), 1X N-2 supplement (Thermo Fisher Scientific, cat. […]
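Note: spheroids exposed to compounds for seven days.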

Take `CC(C)n1c(=O)n(C)c2cnc3cc(F)c(-c4ccc(OCCCN5CCCCC5)nc4)cc3c21`: the viability, T/C is 86.3% and 111% and 107% (compound 0.0316 µM); 104% and 91.8% and 97.7% (compound 0.1 µM); 89.3% and 95.6% and 91.6% (compound 0.316 µM); 100% and 98.3% and 88.6% (compound 1 µM); 100% and 98.2% and 98.4% (compound 3.16 µM); 86% and 92.2% and 96.9% (compound 10 µM). Besides, for the setting “curve of compound”, the IC50 was greater than 10000 nM.

`CC[C@@]1(O)C(=O)OCc2c1cc1n(c2=O)Cc2cc3c(CN(C)C)c(O)ccc3nc2-1`: the viability, T/C (compound 0.000316 µM) is 96.6% and 87.7% and 89.5%; the viability, T/C (compound 0.001 µM) was 91.4% and 93.5% and 116%; the viability, T/C (compound 0.00316 µM) was 112% and 111% and 129%; the viability, T/C (compound 0.01 µM) is 119% and 125% and 112%; the viability, T/C (compound 0.0316 µM) is 71.8% and 125% and 61.7%; the viability, T/C (compound 0.1 µM) is 48.8% and 88.5% and 38.6%. Moreover, under “curve of compound”, the IC50 was 94.1 nM and > 100 nM and 56.7 nM.

Take `CC1COCCN1c1cc(-c2ccnn2C)c2ccnc(-c3ccn[nH]3)c2n1` (centres undefined): the viability, T/C is, setting by setting: (compound 0.0316 µM) 71.3% and 65.3% and 109%; (compound 0.1 µM) 13% and 10.7% and 26.4%; (compound 0.316 µM) 5.52% and 4.67% and 10.7%; (compound 1 µM) 4.69% and 4.34% and 7.36%; (compound 3.16 µM) 4.26% and 2.97% and 6.64%; (compound 10 µM) 4.3% and 3.61% and 9.38%. In addition, where the note is “curve of compound”, the IC50 was 48.2 nM and 43.7 nM and 72.2 nM.

For the molecule `COc1cccc(OCCCN)c1-c1cc(Nc2cnc(C#N)cn2)n[nH]1`, the viability, T/C was 5.26% and 13.4% and 12.2% (compound 0.01 µM); 4.75% and 10.6% and 9.65% (compound 0.0316 µM); 4.55% and 9.76% and 10.4% (compound 0.1 µM); 4.05% and 9.54% and 9.26% (compound 0.316 µM); 5.58% and 9.9% and 9.33% (compound 1 µM). Under “curve of compound”, the IC50 was less than 3.16 nM.

With `COC1C(OC(N)=O)C(O)C(Oc2ccc3c(O)c(NC(=O)c4ccc(O)c(CC=C(C)C)c4)c(=O)oc3c2C)OC1(C)C` (centres undefined), the viability, T/C was 99.1% [middle of 13 runs] (compound 0.0316 µM); 97.7% [middle of 13 runs] (compound 0.1 µM); 97.7% [middle of 13 runs] (compound 0.316 µM); 103% [middle of 13 runs] (compound 3.16 µM); 92.6% [middle of 13 runs] (compound 10 µM). In addition, the IC50 (compound alone, run of 10/31/2023) was greater than 10000 nM.

With `CC1COCCN1c1cc(C2(S(C)(=N)=O)CC2)nc(-c2ccnc3[nH]ccc23)n1` (centres undefined), the viability, T/C by setting is: (compound 0.0316 µM) 97.6% and 101% and 100%; (compound 0.1 µM) 110% and 107% and 101%; (compound 0.316 µM) 102% and 106% and 112%; (compound 1 µM) 38% and 82.3% and 42.9%; (compound 3.16 µM) 7.52% and 14% and 6.48%; (compound 10 µM) 5.94% and 9.28% and 6.22%. Also, the IC50 (curve of compound) is 805 nM and 1720 nM and 876 nM.

As to `CC1COCCN1c1cc(C2(O)CC3CCC(C2)O3)c2cnn(-c3ccn[nH]3)c2n1` (centres undefined), the viability, T/C runs as follows: (compound 0.0316 µM) 62.7% and 62.5% and 102%; (compound 0.1 µM) 11% and 9.46% and 22.4%; (compound 0.316 µM) 5.2% and 4.15% and 9.01%; (compound 1 µM) 4.03% and 3.64% and 7.13%; (compound 3.16 µM) 4.12% and 3.11% and 9.4%; (compound 10 µM) 4.18% and 3.19% and 7.62%. Moreover, under “curve of compound”, the IC50 is 41.9 nM and 41.4 nM and 67.2 nM.

For the molecule `O=C(Nc1ccc(O)c(NS(=O)(=O)c2ccc(F)cc2)c1)c1ccc(-c2ccccc2)cc1` + COC1C(OC(N)=O)C(O)C(Oc2ccc3c(O)c(NC(=O)c4ccc(O)c(CC=C(C)C)c4)c(=O)oc3c2C)OC1(C)C, the IC50 is greater than 10000 nM (curve of first compound, second compound 0.0316 µM); greater than 10000 nM (curve of first compound, second compound 0.1 µM); greater than 10000 nM (curve of first compound, second compound 0.316 µM); greater than 10000 nM (curve of first compound, second compound 1 µM); greater than 10000 nM (curve of first compound, second compound 3.16 µM); greater than 10000 nM (curve of first compound, second compound 10 µM). Further, the viability, T/C reads like this: (second compound 0.0316 µM, first compound 0.0316 µM) 89%; (second compound 0.0316 µM, first compound 0.1 µM) 113%; (second compound 0.0316 µM, first compound 0.316 µM) 107%; (second compound 0.0316 µM, first compound 1 µM) 99%; (second compound 0.0316 µM, first compound 3.16 µM) 105%; (second compound 0.0316 µM, first compound 10 µM) 94.3%. The viability, T/C runs as follows: (second compound 0.1 µM, first compound 0.0316 µM) 107%; (second compound 0.1 µM, first compound 0.1 µM) 105%; (second compound 0.1 µM, first compound 0.316 µM) 102%; (second compound 0.1 µM, first compound 1 µM) 98.2%; (second compound 0.1 µM, first compound 3.16 µM) 107%; (second compound 0.1 µM, first compound 10 µM) 93.1%. In addition, the viability, T/C by setting is: (second compound 0.316 µM, first compound 0.0316 µM) 96.2%; (second compound 0.316 µM, first compound 0.1 µM) 104%; (second compound 0.316 µM, first compound 0.316 µM) 116%; (second compound 0.316 µM, first compound 1 µM) 104%; (second compound 0.316 µM, first compound 3.16 µM) 119%; (second compound 0.316 µM, first compound 10 µM) 96%. Moreover, the viability, T/C is 90.8% (second compound 1 µM, first compound 0.0316 µM); 101% (second compound 1 µM, first compound 0.1 µM); 116% (second compound 1 µM, first compound 0.316 µM); 95% (second compound 1 µM, first compound 1 µM); 125% (second compound 1 µM, first compound 3.16 µM); 99.4% (second compound 1 µM, first compound 10 µM). The viability, T/C by setting is: (second compound 3.16 µM, first compound 0.0316 µM) 90.1%; (second compound 3.16 µM, first compound 0.1 µM) 103%; (second compound 3.16 µM, first compound 0.316 µM) 111%; (second compound 3.16 µM, first compound 1 µM) 103%; (second compound 3.16 µM, first compound 3.16 µM) 105%; (second compound 3.16 µM, first compound 10 µM) 91.5%. The viability, T/C (second compound 10 µM, first compound 0.0316 µM) is 91.9%; the viability, T/C (second compound 10 µM, first compound 0.1 µM) is 111%; the viability, T/C (second compound 10 µM, first compound 0.316 µM) is 103%; the viability, T/C (second compound 10 µM, first compound 1 µM) was 103%; the viability, T/C (second compound 10 µM, first compound 3.16 µM) is 108%; the viability, T/C (second compound 10 µM, first compound 10 µM) is 101%.
